Laboratory results taken from the NIST ThermoML archive (doi:10.1016/j.fluid.2015.07.036).
Numbers after ± are expanded uncertainties.

Settings: for mass density: 100 kPa, Liquid, single sinker densimeter

CCn1cc[n+](C)c1.N#C[C-](C#N)C#N [1-ethyl-3-methyl-1H-imidazolium tricyanomethanide]
Settings	mass density [kg/m3]
262.68 K	1106.12 ± 0.68
268.65 K	1101.93 ± 0.68
273.46 K	1098.21 ± 0.68
278.14 K	1095.15 ± 0.68
283.27 K	1091.23 ± 0.68
288.08 K	1088.11 ± 0.68
293.16 K	1084.64 ± 0.68
298.19 K	1081 ± 0.68
303.27 K	1077.46 ± 0.68
308.21 K	1073.93 ± 0.68
313.21 K	1070.64 ± 0.68
318.2 K	1067.14 ± 0.68
323.32 K	1063.82 ± 0.68
327.9 K	1060.39 ± 0.68
333.05 K	1057.29 ± 0.68
338.17 K	1053.46 ± 0.68
342.95 K	1050.5 ± 0.68
348.05 K	1047.15 ± 0.68
352.71 K	1043.86 ± 0.68
358.12 K	1040.23 ± 0.68
364.84 K	1035.96 ± 0.68

Settings	surface tension liquid-gas [mN/m]
283.22 K, wilhelmy plate method	50.62 ± 0.23
283.25 K, Ring tensiometer	50.71 ± 0.74
288.01 K, wilhelmy plate method	50.33 ± 0.23
288.03 K, Ring tensiometer	50.29 ± 0.74
293.17 K, Ring tensiometer	49.61 ± 0.73
293.19 K, wilhelmy plate method	49.74 ± 0.23
298.13 K, Ring tensiometer	49.45 ± 0.73
298.15 K, wilhelmy plate method	49.4 ± 0.23
303.06 K, Ring tensiometer	48.87 ± 0.72
303.07 K, wilhelmy plate method	48.89 ± 0.22
308.18 K, Ring tensiometer	48.37 ± 0.72
308.19 K, wilhelmy plate method	48.42 ± 0.22
313.19 K, wilhelmy plate method	48.06 ± 0.22
313.27 K, Ring tensiometer	47.99 ± 0.71
318.16 K, wilhelmy plate method	47.48 ± 0.22
318.18 K, Ring tensiometer	47.44 ± 0.71
323.26 K, Ring tensiometer	46.86 ± 0.7
323.3 K, wilhelmy plate method	47.14 ± 0.22
327.9 K, wilhelmy plate method	46.7 ± 0.22
328.44 K, Ring tensiometer	46.65 ± 0.7
333.28 K, Ring tensiometer	46.24 ± 0.7
333.4 K, wilhelmy plate method	46.16 ± 0.22
338.24 K, wilhelmy plate method	45.83 ± 0.22
338.25 K, Ring tensiometer	45.72 ± 0.69
343.18 K, Ring tensiometer	45.39 ± 0.69
343.21 K, wilhelmy plate method	45.31 ± 0.22
347.97 K, Ring tensiometer	44.69 ± 0.69
347.98 K, wilhelmy plate method	44.86 ± 0.22
352.81 K, Ring tensiometer	44.55 ± 0.68
352.89 K, wilhelmy plate method	44.44 ± 0.22
358.17 K, Ring tensiometer	44.06 ± 0.68
358.44 K, wilhelmy plate method	43.93 ± 0.22
365.18 K, Ring tensiometer	43.3 ± 0.67
365.23 K, wilhelmy plate method	43.29 ± 0.22

CCCC[n+]1ccc(C)cc1.N#CC(=C=[N-])C#N [1-butyl-4-methylpyridinium tricyanomethanide]
Settings	mass density [kg/m3]
263.45 K	1059.1 ± 1.1
267.95 K	1056.28 ± 1.1
273.54 K	1052.57 ± 1.1
278.65 K	1048.92 ± 1.1
283.37 K	1045.67 ± 1.1
288.63 K	1042.4 ± 1.1
293.52 K	1038.75 ± 1.1
298.25 K	1035.8 ± 1.1
303.03 K	1032.82 ± 1.1
308.01 K	1029.21 ± 1.1
313.21 K	1025.76 ± 1.1
318.36 K	1022.75 ± 1.1
323.38 K	1019.48 ± 1.1
327.88 K	1016.44 ± 1.1
332.98 K	1013.51 ± 1.1
337.59 K	1010.37 ± 1.1
342.27 K	1007.38 ± 1.1
348.16 K	1003.72 ± 1.1
353.42 K	1000.42 ± 1.1
358.02 K	997.29 ± 1.1
363.31 K	993.79 ± 1.1

surface tension liquid-gas [mN/m]
Settings	Ring tensiometer	wilhelmy plate method
288.6 K	49.8 ± 0.82	–
293.53 K	49.54 ± 0.82	49.49 ± 0.27
298.24 K	–	49.18 ± 0.26
298.25 K	49.45 ± 0.82	–
303.01 K	–	48.76 ± 0.26
303.02 K	48.8 ± 0.82	–
307.98 K	48.37 ± 0.81	–
308.01 K	–	48.35 ± 0.26
313.22 K	48.23 ± 0.81	–
313.27 K	–	47.89 ± 0.26
318.3 K	48.03 ± 0.81	–
318.35 K	–	47.44 ± 0.26
323.38 K	–	47.12 ± 0.26
323.41 K	47.28 ± 0.8	–
327.86 K	47.1 ± 0.8	–
327.98 K	–	46.65 ± 0.25
332.9 K	–	46.21 ± 0.25
332.94 K	46.55 ± 0.8	–
337.57 K	46.06 ± 0.79	–
337.68 K	–	45.88 ± 0.25
344.17 K	–	45.37 ± 0.25
344.19 K	45.74 ± 0.79	–
348.14 K	45.27 ± 0.78	–
348.15 K	–	45.03 ± 0.25
353.35 K	44.97 ± 0.78	–
353.43 K	–	44.52 ± 0.25
358.06 K	44.65 ± 0.78	–
358.09 K	–	44.17 ± 0.25
363.37 K	44.18 ± 0.78	–
363.55 K	–	43.66 ± 0.24

CCCC[N+]1(C)CCCC1.N#CC(=C=[N-])C#N [1-butyl-1-methylpyrrolidinium tricyanomethanide]
Settings	mass density [kg/m3]
263.25 K	1028.92 ± 0.88
268.05 K	1026.15 ± 0.88
274.1 K	1022.18 ± 0.88
278.48 K	1019.29 ± 0.88
283.44 K	1015.85 ± 0.88
288.48 K	1012.68 ± 0.88
292.96 K	1010.28 ± 0.88
298.28 K	1006.87 ± 0.88
303.21 K	1003.94 ± 0.88
308.06 K	1000.78 ± 0.88
313.19 K	997.8 ± 0.88
317.91 K	995.05 ± 0.88
323.17 K	991.69 ± 0.88
328.28 K	988.81 ± 0.88
333.1 K	985.27 ± 0.88
337.77 K	982.59 ± 0.88
343.16 K	979.77 ± 0.88
347.27 K	977.15 ± 0.88
353.46 K	973.98 ± 0.88
358.07 K	970.73 ± 0.88
364.38 K	967.59 ± 0.88

surface tension liquid-gas [mN/m]
Settings	Ring tensiometer	wilhelmy plate method
263.32 K	52.96 ± 0.88	–
267.79 K	52.64 ± 0.88	–
273.16 K	52.22 ± 0.87	–
278.42 K	52.03 ± 0.87	–
283.38 K	51.73 ± 0.87	51.36 ± 0.43
288.45 K	–	50.96 ± 0.43
288.46 K	51.49 ± 0.86	–
292.95 K	51.08 ± 0.86	–
292.96 K	–	50.68 ± 0.43
298.26 K	50.33 ± 0.85	–
298.36 K	–	50.23 ± 0.43
303.17 K	49.82 ± 0.85	–
303.2 K	–	50.1 ± 0.42
308.03 K	–	49.59 ± 0.42
308.05 K	49.88 ± 0.85	–
313.16 K	49.27 ± 0.84	–
313.2 K	–	48.94 ± 0.42
317.89 K	48.85 ± 0.84	–
317.94 K	–	48.74 ± 0.42
323.16 K	48.36 ± 0.83	48.3 ± 0.42
328.06 K	–	47.88 ± 0.42
328.22 K	48.2 ± 0.83	–
333.03 K	–	47.55 ± 0.41
333.06 K	47.81 ± 0.83	–
337.77 K	–	47.21 ± 0.41
337.78 K	47.44 ± 0.83	–
343.45 K	–	46.74 ± 0.41
343.47 K	47.14 ± 0.82	–
347.24 K	46.8 ± 0.82	–
347.78 K	–	46.41 ± 0.41
353.48 K	46.51 ± 0.82	–
353.56 K	–	46.01 ± 0.41
358.13 K	46.25 ± 0.81	–
358.24 K	–	45.64 ± 0.41
364.65 K	45.8 ± 0.81	–
364.77 K	–	45.17 ± 0.4
